From PubChem BioAssay (NCI)
Where “and” joins values, the source holds several entries; their conditions need not be identical. Equal entries are not always repeated.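 Tested at 5 concentrations; 48 h exposure; 96-well plates; endpoints linearly interpolated, else capped at highest concentration. Here, GI50 denotes the concentration required for 50% inhibition of growth. TGI: total growth inhibition.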

Key:
Test in all cases: NCI tumour cell line growth inhibition, 48 h
DLD-1 colon = test system: DLD-1 colon
XF 498 CNS = test system: XF 498 CNS
M19-MEL melanoma = test system: M19-MEL melanoma
SNB-78 CNS = test system: SNB-78 CNS
DMS 114 small cell lung = test system: DMS 114 small cell lung
LXFL 529 NSCLC = test system: LXFL 529 NSCLC
KM20L2 colon = test system: KM20L2 colon
OVCAR-5 ovarian = test system: OVCAR-5 ovarian
IGROV1 ovarian = test system: IGROV1 ovarian
HOP-18 NSCLC = test system: HOP-18 NSCLC
HCT-116 colon = test system: HCT-116 colon
DMS 273 small cell lung = test system: DMS 273 small cell lung
RXF-631 renal = test system: RXF-631 renal
HS 578T breast = test system: HS 578T breast

Row | SMILES | TGI (DLD-1 colon) | GI50 (XF 498 CNS) | TGI (XF 498 CNS) | TGI (M19-MEL melanoma) | TGI (SNB-78 CNS) | GI50 (DMS 114 small cell lung) | TGI (DMS 114 small cell lung) | TGI (LXFL 529 NSCLC) | TGI (KM20L2 colon) | TGI (OVCAR-5 ovarian) | TGI (IGROV1 ovarian) | TGI (HOP-18 NSCLC) | TGI (HCT-116 colon) | TGI (DMS 273 small cell lung) | TGI (RXF-631 renal) [µM] | TGI (HS 578T breast) [µM]
1 | COc1cc(C2c3cc4c(cc3[C@@H](NCCN3CCCCC3)C3COC(=O)[C@H]23)OCO4)cc(OC)c1O (some centres undefined) | 6.78 µM and 10.2 µM | 0.585 µM and 1.27 µM | 4.01 µM and 4.2 µM | 5.4 µM and 4.14 µM | 8.09 µM and 23.3 µM | 0.51 µM and 1.64 µM | 10.9 µM and 16 µM | 14.5 µM and 15.2 µM | 8.14 µM and 11.5 µM | 5.06 µM and 5.73 µM | 4.56 µM and 7.55 µM | 3.73 µM and 29.4 µM | 10.6 µM and 14.6 µM | 1.27 µM and 1.44 µM | – | –
2 | O=C1/C(=C/c2ccc3c(c2)OCO3)CCC1CN1CCOCC1 (centres undefined) | 6.31 µM | – | – | 10 µM | 41.8 µM | – | 15.6 µM | 7.68 µM | 36.9 µM | 31.8 µM | 40.1 µM | 31.4 µM | 14.5 µM | 25.3 µM | 44.7 | 14.8
3 | Cc1cccc(NC(=O)c2cc3cc(N=Nc4ccccc4Cl)ccc3oc2=O)c1 | > 100 µM | – | 64.5 µM | > 100 µM | > 100 µM | – | 66.8 µM | > 100 µM | > 100 µM | 56.8 µM | > 100 µM | > 100 µM | 57.3 µM | > 100 µM | > 100 | –
4 | COc1cc(Cl)cc(N(O)C(C)=O)c1OCc1ccccc1 | > 100 µM | – | > 100 µM | > 100 µM | > 100 µM | – | 71.5 µM | > 100 µM | > 100 µM | > 100 µM | > 100 µM | > 100 µM | > 100 µM | > 100 µM | – | –
5 | COc1cc(Cn2c(=S)ss/c2=N\C(=S)N(C)C)cc(OC)c1OC | > 100 µM | – | – | > 66.2 µM | > 100 µM | – | 12.8 µM | > 100 µM | > 100 µM | > 100 µM | > 96 µM | > 100 µM | > 70.7 µM | > 100 µM | > 100 | > 100
6 | COc1ccc(C(Cc2cc(OC)c(OC)c(OC)c2)C(=O)O)cc1 (centres undefined) | > 100 µM | – | > 100 µM | > 100 µM | > 100 µM | – | > 100 µM | – | > 100 µM | > 100 µM | > 100 µM | > 100 µM | > 100 µM | > 100 µM | > 100 | –
7 | COC(=O)C1C2C=CC(C2)C1(C(=O)OC)S(=O)CC12CCC(CC1O)C2(C)C (centres undefined) | > 100 µM | – | > 100 µM | > 100 µM | > 100 µM | – | > 100 µM | > 100 µM | > 100 µM | > 100 µM | > 100 µM | > 100 µM | > 100 µM | > 100 µM | > 100 | –
8 | C=CN1C(=O)OC[C@@H]1c1ccccc1 | > 100 µM | – | > 100 µM | > 100 µM | > 100 µM | – | > 100 µM | > 100 µM | > 100 µM | > 100 µM | > 100 µM | > 100 µM | > 100 µM | 50.7 µM | > 100 | –
9 | CCC(CC)n1cc(C(=O)NC(=O)NCCCCCOC(=O)CCCCCCCCCCC(=O)OCCCCCNC(=O)NC(=O)c2cn(C(CC)CC)c(=O)[nH]c2=O)c(=O)[nH]c1=O | > 100 µM | – | > 100 µM | > 100 µM | > 100 µM | – | > 100 µM | > 100 µM | > 100 µM | > 100 µM | > 100 µM | > 100 µM | > 100 µM | > 100 µM | > 100 | –
10 | O=C(Cc1ccccc1)NN1C(=O)C(Cl)C1c1ccc([N+](=O)[O-])cc1 (centres undefined) | > 100 µM | – | > 100 µM | > 100 µM | > 100 µM | – | > 100 µM | > 100 µM | > 100 µM | > 100 µM | > 100 µM | > 100 µM | > 100 µM | > 100 µM | – | –
11 | COc1ccc(N(C)Sc2ccccc2)cc1 | > 100 µM | – | 96.6 µM | > 100 µM | > 100 µM | – | > 100 µM | > 100 µM | > 100 µM | > 100 µM | > 100 µM | > 100 µM | > 100 µM | > 100 µM | – | –
12 | C=CCN(N=O)C(=O)N(CCCC(NC(C)=O)C(=O)NCc1ccccc1)Cc1ccccc1 (centres undefined) | – | – | > 100 µM | > 100 µM | – | – | > 100 µM | > 100 µM | > 100 µM | > 100 µM | > 100 µM | – | – | > 100 µM | > 100 | –
